The results in this text go back to patent US7432353B2, “Fluorescent indicator proteins” (priority 2005, dated 2008).

A word on the Kd: it is the free concentration of one partner at which half of the binding sites on the other are occupied at equilibrium, for simple one-to-one binding. A low value points to a tighter complex.

Assay [1] concerns the target T1, E. coli RBP (ribose binding protein) fusion protein CrbsBY-ND (Asn-Asp between ECFP and RBP), SEQ ID NO: 38 (Escherichia coli, UniProt P02925).
T1 construct: made in house; host or cells: E. coli JM109 (DE3)
In words: Ribose titration and sugar specificity of FRET sensor CrbsBY-ND. Conditions: for affinity (substrate specificity): in words, FIG. 12C. Here is the method:
(§1) The fluorescence analysis of the MBP fusion proteins expressed and purified in Example 2 was performed using fluorescence spectrophotometer Cary Eclipse (Varian, Australia) at 25° C., and the MBP fusion proteins were diluted in PBS buffer (pH 7.4) to the same concentrations of 0.2 μM. To define the FRET efficiency in the fluorescence analysis, the emission intensity ratio between the emission intensity of ECFP at 480 nm, measured at an excitation wavelength of 436 nm, and the emission intensity of EYFP at 530 nm, caused by FRET, was substituted into Equation 3 below for convenience: Ratio=[530 nm/480 nm] [Equation 3]
(§2) Profiles of the ratios at wide substrate concentrations were fit by a four-parameter Hill equation with SigmaPlot (SSI, USA) and the binding substance concentration corresponding to the medium between ratio10 mM and ratioapo was determined to be the dissociation constant (Kd) of the fusion proteins.
(§3) The selection of PBPs to be introduced into the MBP position was performed by collecting data from SCOP (Structural Classification of Proteins; http://scop.mrc-lmb.cam.ac.uk/scop/), and then investigating the kinetic change of three-dimensional structures which is accompanied by substrate binding in PDB (Protein Data Bank, http://www.rcsb.org/pdb/). For example, three kinds of E. coli-derived PBPs such as ALBP, RBP, and ARBP were introduced into the MBP site of the MBP fusion proteins according to the present invention. For this purpose, the genetic sequence information of said PBPs was secured from Swiss-Prot (http://kr.expasy.org/), and on the basis of the information, primers capable of amplifying genes encoding the PBPs were constructed. The genes were amplified by performing PCR from the chromosome of E. coli MG1655 using the constructed primers.
(§4) The fusion protein expression vectors constructed in the form of libraries as described above were transformed into E. coli JM109 (DE3), and 3-5 bacterial strains transformed with vectors were randomly selected from each of the libraries without carrying out the screening process described in Example 4, and were expressed and purified according to the method of Example 2. Then, the various PBP fusion proteins were subjected to analyze the fluorescence characteristics to each of substances, and sugar sensors (the fluorescent indicator proteins for detection of sugar) having the highest signal intensity were selected. As a result, as shown on FIGS. 11A, 11B and 11C, and Table 2 below, CalsBY-QV of SEQ ID NO: 36, CaraFY-PR of SEQ ID NO: 37 and CrbsBY-ND of SEQ ID NO: 38 could be secured.
(§5) To examine the substrate affinity of said three kinds of fusion proteins, the substrate specificity thereof for a variety of sugars was analyzed.

Assay [2] concerns the target T2, E. coli ALBP (allose binding protein) fusion protein CalsBY-QV (Gln-Val between ECFP and ALBP), SEQ ID NO: 36 (Escherichia coli, UniProt P39265).
T2 construct: made in house; host or cells: E. coli JM109 (DE3)
Briefly: Allose titration and sugar specificity of FRET sensor CalsBY-QV.

For assay [3], the target named is T3, MBP (maltose binding protein) fusion protein CMY-LH (Leu-His between ECFP and MBP), SEQ ID NO: 32 (Escherichia coli, UniProt P0AEX9).
T3 construct: made in house; host or cells: E. coli JM109 (DE3)
In words: Maltose titration and sugar specificity of FRET sensor CMY-LH. Conditions: for affinity (substrate specificity): in words, FIG. 8A, 10 mM for d-glucose and melezitose, change attributed to contamination of trace maltose. As to the method:
as §1, §2

The target in assay [4] is T4, MBP (maltose binding protein) fusion protein CMY-LH variant CMY-LH/W62H (Trp62His in MBP), SEQ ID NO: 34 (Escherichia coli, UniProt P0AEX9, W88H).
T4 construct: made in house; host or cells: E. coli JM109 (DE3)
In words: Maltose titration and sugar specificity of FRET sensor CMY-LH/W62H. Conditions: range between 10 and 90% saturation. Here is the method: as §1, §2

The target in assay [5] is T5, SBP (sucrose binding protein; MBP mutant Asp14Leu, Lys15Phe, Trp62Tyr, Glu111Tyr) fusion protein CSY-B (Escherichia coli, UniProt P0AEX9, D40L/E137Y/K41F/W88Y).
T5 construct: SBP = engineered MBP made on pMALc2x template; expressed in E. coli JM109(DE3), purified
In words: Sucrose and maltose titration of FRET sensor CSY-B. Conditions: for Quantification range: range between 10 and 90% saturation. Here is the method:
as §1, §2
(§6) The MBP-encoding gene to be used as a template was a pMALc2x vector (NEB, USA), and to make the SBP gene, PCR was performed using primers of SEQ ID NOs: 27, 28, 29 and 11. Because the above-amplified gene contains partial mutations in MBP, including a substitution of Asp14 with Leu, a substitution of Lys15 with Phe, a substitution of Trp62 with Tyr, and a substitution of Glu111 with Tyr, it encodes the SBP gene capable of binding to sucrose, as reported in the prior art (Guntas, G. et al., PNAS, 102:11224, 2005).
(§7) The above SBP fusion protein expression vectors were transformed into E. Coli JM109 (DE3), expressed and purified according to the method of Example 3.

The target in assay [6] is T6, MBP (maltose binding protein) fusion protein CMY-B (ECFP-MBP-EYFP) (Escherichia coli, UniProt P0AEX9).
T6 construct: mature MBP from pMALc2x; expressed in E. coli JM109(DE3), purified
Briefly: Maltose response of FRET sensor CMY-B. The following applies: in words; control for yeast imaging, 10 mM maltose. Here is the method:
as §1, §2

Assay [7] addresses T7, MBP (maltose binding protein) fusion protein CMY-LH variant CMY-LH/W62L (Trp62Leu in MBP), SEQ ID NO: 35 (Escherichia coli, UniProt P0AEX9, W88L).
T7 construct: made in house; host or cells: E. coli JM109 (DE3)
Briefly: Maltose titration and sugar specificity of FRET sensor CMY-LH/W62L. The following applies: range between 10 and 90% saturation. As to the method:
as §1, §2

Assay [8] concerns the target T8, MBP (maltose binding protein) fusion protein CMY-0 (ECFP-MBP-EYFP without connecting peptides) (Escherichia coli, UniProt P0AEX9).
T8 construct: mature MBP amplified from pMALc2x (NEB); expressed in E. coli JM109(DE3), purified
Briefly: Maltose titration of FRET sensor CMY-0 (fluorescence ratio 530/480 nm). Conditions: range between 10 and 90% saturation. Here is the method:
as §1, §2

Assay [9] concerns the target T9, MBP (maltose binding protein) fusion protein CMY-QI (Gln-Ile between ECFP and MBP), SEQ ID NO: 31 (Escherichia coli, UniProt P0AEX9).
T9 construct: made in house; host or cells: E. coli JM109 (DE3)
In words: Maltose titration of FRET sensor CMY-QI. The following applies: range between 10 and 90% saturation. Here is the method:
as §1, §2

The target in assay [10] is T10, MBP (maltose binding protein) fusion protein CMY-LH variant CMY-LH/W62A (Trp62Ala in MBP), SEQ ID NO: 33 (Escherichia coli, UniProt P0AEX9, W88A).
T10 construct: made in house; host or cells: E. coli JM109 (DE3)
In words: Maltose titration of FRET sensor CMY-LH/W62A. The following applies: range between 10 and 90% saturation. Here is the method:
as §1, §2

In assay [11] the target is T11, SBP (sucrose binding protein; MBP mutant Asp14Leu, Lys15Phe, Trp62Tyr, Glu111Tyr) fusion protein CSY-BII (Escherichia coli, UniProt P0AEX9, D40L/E137Y/K41F/W88Y).
T11 construct: SBP = engineered MBP made on pMALc2x template; expressed in E. coli JM109(DE3), purified
Briefly: Sucrose and maltose titration of FRET sensor CSY-BII. The following applies: for Quantification range: range between 10 and 90% saturation. As to the method: as §1, §2, §6, §7

Assay [12] deals with T12, MBP (maltose binding protein) fusion protein CMY-BII (ECFP-SR-MBP-GS-EYFP) (Escherichia coli, UniProt P0AEX9).
T12 construct: mature MBP from pMALc2x; expressed in E. coli JM109(DE3), purified
Briefly: Maltose titration of FRET sensor CMY-BII. Conditions: range between 10 and 90% saturation. As to the method: as §1, §2

Assay [13] addresses T13, SBP (sucrose binding protein; MBP mutant Asp14Leu, Lys15Phe, Trp62Tyr, Glu111Tyr) fusion protein CSY-LH, SEQ ID NO: 39 (Escherichia coli, UniProt P0AEX9, D40L/E137Y/K41F/W88Y).
T13 construct: made in house; host or cells: E. coli JM109 (DE3)
Briefly: Sucrose and maltose titration and sugar specificity of FRET sensor CSY-LH. Conditions: for Quantification range: range between 10 and 90% saturation. Here is the method:
as §1, §2, §6, §7
The CSY-LH was analyzed for binding affinity for a variety of sugars.

For assay [14], the target named is T14, E. coli ARBP (arabinose binding protein) fusion protein CaraFY-PR (Pro-Arg between ECFP and ARBP), SEQ ID NO: 37 (Escherichia coli, UniProt P02924).
T14 construct: made in house; host or cells: E. coli JM109 (DE3)
Briefly: Arabinose titration and sugar specificity of FRET sensor CaraFY-PR. Conditions: for affinity (substrate specificity): in words, FIG. 12B. Here is the method:
as §1, §2, §3, §4, §5

Where [15] appears, read: ratio(10 mM) minus ratioapo, saturating sugar.

With `OC[C@H]1OC(O)[C@H](O)[C@H](O)[C@@H]1O` (some centres unmarked) [allose], in assay [1], the “affinity (substrate specificity)” value is “very high affinity”. The Quantification range in [2] (allose, range between 10 and 90% saturation) fell in the range of 0.04 to 2.81 µM.
Take `OC[C@H]1O[C@@](CO)(O[C@H]2O[C@H](CO)[C@@H](O)[C@H](O)[C@H]2O)[C@@H](O[C@H]2O[C@H](CO)[C@@H](O)[C@H](O)[C@H]2O)[C@@H]1O` [melezitose]: the “affinity (substrate specificity)” value in assay [3] is listed as “low level of affinity”.
On to `OC[C@H]1O[C@H](O[C@H]2[C@H](O)[C@@H](O)C(O)O[C@@H]2CO)[C@H](O)[C@@H](O)[C@@H]1O` (some centres unmarked) [maltose], for which the Quantification range in assay [4] is 5 to 325 µM; in [5], 120-9,500 μM; in [7], 10 to 650 µM; in assay [8] it was 0.5 to 11.2 µM; in assay [9], 0.2 to 15.1 µM; in assay [10] it was 31-2,080 μM. In addition, the Quantification range in [11] was 155-3,800 μM; in [12], 0.3 to 13.3 µM; in assay [13] it was 80-5,080 μM; in [3] (maltose, range between 10 and 90% saturation), 0.2 to 13.2 µM. The sensitivity to maltose entry in assay [6] is on record as “no sensitivity”.
Regarding `OC1OC[C@@H](O)[C@@H](O)[C@H]1O` (some centres unmarked) [ribose], the Kd in assay [1] (ribose, 50% saturation) turned out to be 170 ± 10 nM. This molecule also yielded a Quantification range in assay [1] (ribose, range between 10 and 90% saturation) of 0.03 to 1.15 µM. Further, in [1] (ribose, ratio(10 mM) minus ratioapo, saturating sugar), the Δratio is −0.12. Further, in assay [2] (in words, FIG. 12A, ribose at mM levels), the “affinity (substrate specificity)” value was “low affinity”.
With `OC[C@H]1OC(O)[C@H](O)[C@@H](O)[C@@H]1O` (stereo partly drawn) [d-glucose], the “affinity (substrate specificity)” value in assay [3] is recorded as “low level of affinity”.
Consider `OC[C@H]1OC(O)[C@H](O)[C@@H](O)[C@H]1O` (some centres unmarked) [galactose], for which the “affinity (substrate specificity)” value in assay [14] is given as “very high affinity”.
Same read-out and setting: then `C[C@@H]1OC(O)[C@H](O)[C@H](O)[C@H]1O` (some centres unmarked) [rhamnose], with “low affinity”.
Turning to `OC1OC[C@H](O)[C@H](O)[C@H]1O` (some centres unmarked) [arabinose], the Kd in assay [14] turned out to be 360 ± 10 nM. Also, the Quantification range in assay [14] (arabinose, range between 10 and 90% saturation) was in the range of 0.05 to 2.74 µM. Moreover, in [14] (arabinose, ratio(10 mM) minus ratioapo, saturating sugar), the Δratio was found to be 0.29.
For the molecule `OC[C@H]1O[C@@H](O[C@H]2[C@H](O)[C@@H](O)C(O)O[C@@H]2CO)[C@H](O)[C@@H](O)[C@H]1O` (some centres unmarked) [lactose], the “affinity (substrate specificity)” value in assay [14] is listed as “low affinity”.
Consider `OC1OC[C@@H](O)[C@H](O)[C@H]1O` (some centres unmarked) [xylose], for which the results for the “affinity (substrate specificity)” value in assay [1] and in assay [14] were “significant affinity” and “low affinity”, respectively.
As for `OC[C@H]1O[C@H](OC[C@H]2OC(O)[C@H](O)[C@@H](O)[C@@H]2O)[C@H](O)[C@@H](O)[C@H]1O` (some centres unmarked) [melibiose], the “affinity (substrate specificity)” value in assay [14] is given as “low affinity”.
Consider `OC[C@H]1O[C@@](CO)(O[C@H]2O[C@H](CO)[C@@H](O)[C@H](O)[C@H]2O)[C@@H](O)[C@@H]1O` [sucrose], for which the dissociation constant (Kd) in assay [5] came out at 286 ± 16 µM; in assay [11] it was 234 ± 18 µM; in [13], 163 ± 3 µM. Also, the values for the Quantification range in assay [5], in assay [11] and in assay [13] were 20-3,700 μM, 30-1,880 μM and 17-1,560 μM, respectively. For the same molecule, the Δratio is −0.11 in assay [5] (setting [15]), 0.14 in [11] (setting [15]) and 0.72 in assay [13] (setting [15]). Moreover, the “Kd, fold higher than previously reported results” value in assay [13] (compared to Guntas et al., PNAS, 102:11224, 2005) was “about 25 fold”.
